Numbered stars: 1 amine (or outer) side, 2 acyl side, 3 side chain; on linkers, the order of the positions; unused ones are H or OH. Square brackets hold non-standard residues; d marks the D form. Side chains are listed from the residue outwards. Peptide text beside a SMILES is read from it. * marks the point of attachment. C18 diacid = O=C(O)CCCCCCCCCCCCCCCCC(=O)*; γGlu = O=C(O)[C@H](CCC(=O)[*:2])N[*:1]; Aib = CC(C)(N)C(=O)O
Tested on: healthy human subjects
Experiment: Standard meal test (lunch and dinner), Phase 1b trial
Assay type: in vivo
Excerpt: Reduction in appetite is reflected in the reduction in food intake measured by mixed meal test for breakfast (Table 11) and by measuring caloric intake at standard meals for lunch and dinner (Table 12).
Pre-defined lunch and dinner meals were served at baseline (on Day -1) and after 4th dose (Day 23). Consumption was supervised and leftovers were weighed.

## CC[C@H](C)[C@H](NC(=O)[C@H](Cc1ccccc1)NC(=O)[C@H](CC(=O)O)NC(=O)[C@H](CCCNC(=N)N)NC(=O)[C@H](C)NC(=O)[C@H](C)NC(=O)[C@H](CCC(N)=O)NC(=O)[C@H](CCCCNC(=O)CC[C@H](NC(=O)CCCCCCCCCCCCCCCCC(=O)O)C(=O)O)NC(=O)[C@H](CC(=O)O)NC(=O)[C@H](CC(C)C)NC(=O)[C@@H](NC(=O)[C@@H](NC(=O)[C@H](C)NC(=O)[C@H](CC(C)C)NC(=O)[C@H](CCC(=O)O)NC(=O)[C@H](CO)NC(=O)[C@@H](NC(=O)[C@H](Cc1ccccc1)NC(=O)[C@H](CO)NC(=O)CNC(=O)[C@H](CCC(=O)O)NC(=O)C(C)(C)NC(=O)[C@@H](N)Cc1c[nH]cn1)[C@@H](C)O)[C@@H](C)O)[C@@H](C)CC)C(=O)N[C@@H](C)C(=O)N[C@@H](Cc1c[nH]c2ccccc12)C(=O)N[C@@H](CC(C)C)C(=O)N[C@H](C(=O)N[C@@H](CCC(N)=O)C(=O)N[C@@H](Cc1c[nH]cn1)C(=O)N[C@@H](CCCCN)C(=O)N[C@H](C(=O)N[C@H](C(=O)N[C@@H](CC(=O)O)C(=O)O)[C@@H](C)O)[C@@H](C)CC)[C@@H](C)CC [Compound 18] (H-H[Aib]EGSFTSELATILDK([γGlu-C18 diacid])QAARDFIAWLIQHKITD-OH)
Dinner, After 4th dose (Day 23), cohort 1.0 mg weekly
  Mean food consumption: 682 kcal
Dinner, After 4th dose (Day 23), cohort 2.25 mg weekly
  Mean food consumption: 585 kcal
Dinner, After 4th dose (Day 23), cohort 3.5 mg weekly
  Mean food consumption: 594 kcal
Dinner, After 4th dose (Day 23), cohort 3.5/6.0 mg weekly
  Mean food consumption: 423 kcal
Dinner, Baseline (Day -1), cohort 1.0 mg
  Mean food consumption: 694 kcal
Dinner, Baseline (Day -1), cohort 2.25 mg
  Mean food consumption: 679 kcal
Dinner, Baseline (Day -1), cohort 3.5 mg
  Mean food consumption: 695 kcal
Dinner, Baseline (Day -1), cohort 3.5/6.0 mg
  Mean food consumption: 694 kcal
Lunch, After 4th dose (Day 23), cohort 1.0 mg weekly
  Mean food consumption: 705 kcal
Lunch, After 4th dose (Day 23), cohort 2.25 mg weekly
  Mean food consumption: 649 kcal
Lunch, After 4th dose (Day 23), cohort 3.5 mg weekly
  Mean food consumption: 647 kcal
Lunch, After 4th dose (Day 23), cohort 3.5/6.0 mg weekly
  Mean food consumption: 403 kcal
Lunch, Baseline (Day -1), cohort 1.0 mg
  Mean food consumption: 701 kcal
Lunch, Baseline (Day -1), cohort 2.25 mg
  Mean food consumption: 638 kcal
Lunch, Baseline (Day -1), cohort 3.5 mg
  Mean food consumption: 706 kcal
Lunch, Baseline (Day -1), cohort 3.5/6.0 mg
  Mean food consumption: 671 kcal
